{"source": "patent US5496841A", "about": "“Anti-neoplastic, anti-viral and ribonucleotide reductase activity affecting pharmaceutical compositions and method of treatment” (University of Florida Research Foundation, Inc., priority 1995, dated 1996)", "key": {"[1]": {"tested_on": "Murine L1210 leukemia cells", "test": "L1210 leukemia cell growth inhibition", "assay_type": "cell-based", "details": "for anti-leukemic activity (in words): L1210; for IC50: L1210, 48 hr, read-out: Antileukemic Activity (IC50, 48 hr); for % Control, L1210 growth: Compound II 10 μM"}, "[2]": {"tested_on": "herpes simplex I, KOS strain", "test": "Inhibition of herpes simplex virus replication in CV-1 cells (plaque assay)", "assay_type": "cell-based", "details": "for anti-herpetic activity (in words): herpes simplex I; for % Control, Herpes replication: Compound II 100 μM"}, "[3]": {"tested_on": "vesicular stomatitis virus", "test": "microbe, parasite or virus in culture", "assay_type": "cell-based"}, "[4]": {"test": "Iron formation (binding) constant", "assay_type": "physicochemical", "details": "estimated iron binding constant", "from_the_text": "When the compounds were ranked according to their estimated iron binding constants (Table I), the order generally paralleled both the anti-leukemicand anti-herpetic activities of the compounds. […] Furthermore, the effects of the ligands could be prevented by addition of ferric chloride, supporting the idea that iron chelation is the source of activity."}, "[5]": {"details": "prior art statement; cited from earlier work"}, "[6]": {"test": "Partition between n-octanol and phosphate buffered saline", "assay_type": "physicochemical", "details": "PBS pH 7.40 / n-octanol; for logD at 12 h: pH 7.4, 27° C., read-out: Conc. n-Octanol / Conc. PBS (partition coefficient) (converted)", "experimental": "The partition equilibrium values for octanol and phosphate buffered saline were determined for certain of the test compounds. The compounds were added in nitrogen saturated methanol at the same concentration to three acid washed test tubes and the alcohol evaporated leaving a thin film of compounds coating the interior of the tube. Next, 5 ml each of degassed phosphate buffered saline (pH 7.4) and n-octanol were added. The tubes were sealed with Teflon caps under argon and rotated at 6 rpm at 27° C. for 12 hours. […] Absorbance values were compared to Beer's Lambert's plots generated for each compound."}, "Plasmodium falciparum": {"tested_on": "Plasmodium falciparum", "test": "In vitro growth of Plasmodium falciparum (candle jar technique)", "assay_type": "cell-based", "experimental": "The anti-malarial activity of the compounds listed in Table IV were determined using the method of Scheibel et al, Mol. Pharmacol., 20, pp. 218-223 (1981).\nIn this study, Plasmodium falciparum were grown in petri dishes using the conventional candle jar technique (Jensen, J. B., and W. Trager. Plasmodium falciparum in culture; use of outdated erythrocytes and description of the candle jar method. J. Parasitol. Vol. 63, pp. 883-886 (1977)). Parasites were grown for 24 hours in 1.5 ml petri dishes in a candle jar before exposure to the chelators of interest. The Plasmodium falciparum were next exposed to various concentrations of the ligands, and ED50 values determined after two and three days of exposure."}, "CV-1 monkey kidney cells": {"tested_on": "CV-1 monkey kidney cells", "test": "Toxicity to resting monkey kidney cell monolayers", "assay_type": "cell-based", "details": "100 μM, 24 hours"}, "L1210 cells": {"tested_on": "L1210 cells", "details": "Porter et al, read-out: 50% growth-inhibitory dose; cited from earlier work"}, "[7]": {"tested_on": "herpes virus (same herpes strain)", "details": "vero monkey kidney cell line, DeClercq, read-out: IC50 anti-herpetic; cited from earlier work"}, "[8]": {"details": "CV-1, read-out: Antiviral Activity Herpes simplex I (IC50)"}, "[9]": {"details": "Vesicular stomatitis virus, CV-1, read-out: Antiviral Activity Vesicular stomatitis (IC50)"}, "[10]": {"details": "CV-1 cells, read-out: Antiviral Activity Herpes simplex I (IC50)"}, "[11]": {"details": "48 h, exposure for 2 days, read-out: Concentration required to reduce in vitro growth of P. falciparum 50% (ED50), Day 2"}, "[12]": {"details": "72 h, exposure for 3 days, read-out: Concentration required to reduce in vitro growth of P. falciparum 50% (ED50), Day 3"}}, "note": "Read-outs that look alike come from different tables or passages of the source.", "data": [{"smiles": "NCCCCN(CCCN)Cc1ccccc1", "values": [{"measurement": "anti-leukemic activity (in words)", "setting": "[1]", "value": "virtually inactive"}, {"measurement": "IC50", "setting": "[1]; Mus musculus", "value": 4000, "unit": "µM"}, {"measurement": "IC50", "setting": "[2]; [8]", "value": 1000, "unit": "µM"}, {"measurement": "anti-herpetic activity (in words)", "setting": "[2]", "value": "virtually inactive"}, {"measurement": "IC50", "setting": "[3]; [9]", "value": 1000, "unit": "µM"}, {"measurement": "Formation Constant", "setting": "[4]", "value": 0, "unit": "moles/1"}]}, {"smiles": "C[C@H]1OC(c2ccccc2O)=N[C@@H]1C(=O)N(CCCCNC(=O)c1cccc(O)c1O)CCCNC(=O)c1cccc(O)c1O", "note": "(relative stereo) [Parabactin, N-[3-(2,3-dihydroxybenzamido)propyl]-N-[4-(2,3-dihydroxybenzamino)-butyryl]-2-(2-hydroxyphenyl)trans-5-methyl-oxazoline-4-carboxamide]", "values": [{"measurement": "iron formation constant of 1:1 metal complex", "setting": "[5]", "value": "~10^48 moles/l"}, {"measurement": "IC50", "setting": "[1]; Mus musculus", "value": 2, "unit": "µM"}, {"measurement": "times more active as an antineoplastic than DHBA", "setting": "[1]; ratio vs DHBA", "value": "10^3"}, {"measurement": "IC50", "setting": "[2]; [10]", "value": 0.4, "unit": "µM"}, {"measurement": "Gt ° (G° transfer)", "setting": "[6]", "value": -2.06, "unit": "K cal M-I"}, {"measurement": "logD at 12 h", "setting": "[6]", "value": 1.51}, {"measurement": "IC50", "setting": "Plasmodium falciparum; [11]", "value": 2.6, "unit": "µM"}, {"measurement": "IC50", "setting": "Plasmodium falciparum; [12]", "value": 2.3, "unit": "µM"}]}, {"smiles": "C[C@H]1OC(c2cccc(O)c2O)=N[C@@H]1C(=O)NCCCN(CCCNC(=O)c1cccc(O)c1O)C(=O)[C@H]1N=C(c2cccc(O)c2O)O[C@@H]1C", "note": "(relative stereo) [Vibrobactin, N-[3-(2,3-(dihydrozybenzamido)propyl]-1,3-bis(2,3-dihydroxyphenyl)-trans-5-methyl-2-oxazoline-4-carbonamido]propane]", "values": [{"measurement": "IC50", "setting": "[1]; Mus musculus", "value": 2, "unit": "µM"}, {"measurement": "IC50", "setting": "Plasmodium falciparum; [11]", "value": 4.5, "unit": "µM"}, {"measurement": "IC50", "setting": "Plasmodium falciparum; [12]", "value": 1.8, "unit": "µM"}]}, {"smiles": "O=C(NCCCCNCCCNC(=O)c1cccc(O)c1O)c1cccc(O)c1O", "note": "[Compound II, N^1,N^8-bis(2,3-dihydroxybenzoyl)-spermidine]", "values": [{"measurement": "growth of resting cell monolayers after treatment and replacement in drug-free media", "setting": "CV-1 monkey kidney cells", "value": "identical to that of untreated cells"}, {"measurement": "% Control, L1210 growth", "setting": "[1]; FeCl3 0 μM", "value": 23, "unit": "% Control"}, {"measurement": "% Control, L1210 growth", "setting": "[1]; FeCl3 4 μM", "value": 64, "unit": "% Control"}, {"measurement": "% Control, L1210 growth", "setting": "[1]; FeCl3 8 μM", "value": 96, "unit": "% Control"}, {"measurement": "% Control, L1210 growth", "setting": "[1]; FeCl3 12 μM", "value": 104, "unit": "% Control"}, {"measurement": "IC50", "setting": "[1]; Mus musculus", "value": 7, "unit": "µM"}, {"measurement": "anti-leukemic activity on inclusion of exogenous iron in the incubation media", "setting": "[1]; ferric chloride added", "value": "fully attenuated"}, {"measurement": "IC50", "setting": "[2]; [10]", "value": 32, "unit": "µM"}, {"measurement": "% Control, Herpes replication", "setting": "[2]; FeCl3 0 μM", "value": 0, "unit": "% Control"}, {"measurement": "% Control, Herpes replication", "setting": "[2]; FeCl3 9 μM", "value": 20, "unit": "% Control"}, {"measurement": "% Control, Herpes replication", "setting": "[2]; FeCl3 19 μM", "value": 53, "unit": "% Control"}, {"measurement": "% Control, Herpes replication", "setting": "[2]; FeCl3 38 μM", "value": 138, "unit": "% Control"}, {"measurement": "anti-herpetic activity on inclusion of exogenous iron in the incubation media", "setting": "[2]; ferric chloride added, herpes replication assay", "value": "fully attenuated"}, {"measurement": "IC50", "setting": "[3]; [9]", "value": 1000, "unit": "µM"}, {"measurement": "Gt ° (G° transfer)", "setting": "[6]", "value": -0.04, "unit": "K cal M-I"}, {"measurement": "logD at 12 h", "setting": "[6]", "value": -0.0132}, {"measurement": "IC50", "setting": "Plasmodium falciparum; [11]", "value": 4.5, "unit": "µM"}, {"measurement": "IC50", "setting": "Plasmodium falciparum; [12]", "value": 3.7, "unit": "µM"}, {"measurement": "IC50", "setting": "L1210 cells", "value": 10, "unit": "µM"}]}, {"smiles": "O=C(O)c1cccc(O)c1O", "note": "[DHBA, 2,3-dihydroxybenzoic acid]", "values": [{"measurement": "anti-leukemic activity (in words)", "setting": "[1]", "value": "minimal activity"}, {"measurement": "IC50", "setting": "[1]; Mus musculus", "value": 2800, "unit": "µM"}, {"measurement": "IC50", "setting": "[2]; [8]", "value": 1000, "unit": "µM"}, {"measurement": "anti-herpetic activity (in words)", "setting": "[2]", "value": "minimal activity"}, {"measurement": "IC50", "setting": "[3]; [9]", "value": 1000, "unit": "µM"}, {"measurement": "Gt ° (G° transfer)", "setting": "[6]", "value": "+1.57 K cal M-I"}, {"measurement": "logD at 12 h", "setting": "[6]", "value": -1.15}]}, {"smiles": "Nc1nc(=O)n([C@@H]2O[C@H](CO)[C@@H](O)[C@@H]2F)cc1I", "note": "[FIAC, 2-fluoro-5-iodo-I-B-D-arabinofuranosylcytosine]", "values": [{"measurement": "IC50", "setting": "[7]", "value": 0.6, "unit": "µM"}]}, {"smiles": "O=C(NCCCCN(CCCNC(=O)c1cccc(O)c1O)C(=O)CCCNC(=O)c1cccc(O)c1O)c1cccc(O)c1O", "note": "[GABA, N^1,N^8-bis(2,3-dihydroxybenzoyl)-N^4-(4-[2,3-dihydrozybenzamido]-butyryl) spermidine]", "values": [{"measurement": "IC50", "setting": "[1]; Mus musculus", "value": 2, "unit": "µM"}, {"measurement": "IC50", "setting": "[2]; [10]", "value": 18, "unit": "µM"}, {"measurement": "IC50", "setting": "[3]; [9]", "value": 1000, "unit": "µM"}, {"measurement": "IC50", "setting": "Plasmodium falciparum; [11]", "value": 5.1, "unit": "µM"}, {"measurement": "IC50", "setting": "Plasmodium falciparum; [12]", "value": 4.3, "unit": "µM"}]}, {"smiles": "C[C@@H](O)[C@H](N)C(=O)N(CCCCNC(=O)c1cccc(O)c1O)CCCNC(=O)c1cccc(O)c1O", "note": "[N^1,N^8-bis(2,3-dihydroxybenzoyl)-N^4-threonyl-spermidine]", "values": [{"measurement": "IC50", "setting": "[1]", "value": 14, "unit": "µM"}, {"measurement": "IC50", "setting": "[2]; [10]", "value": 55, "unit": "µM"}, {"measurement": "IC50", "setting": "[3]; estimated by methyl cellulose disk overlay assay, read-out: Antiviral Activity Vesicular stomatitis (IC50)", "value": 1000, "unit": "µM"}]}, {"smiles": "Nc1nc2c(ncn2COCCO)c(=O)[nH]1", "note": "[acyclovir]", "values": [{"measurement": "IC50", "setting": "[7]", "value": 40, "unit": "µM"}]}]}
